What is called pKi is the negative decadic logarithm of the Ki, by convention in mol/L.

pKi: −log10 of the molar value.

This assay deals with H3 receptor (UniProt Q9Y5N1). In words: H3 Receptor Binding Assay. As to conditions: displacement of 3 nM [3H]R-α-methyl histamine or [3H]Nα-methyl histamine; membranes from guinea pig brain, alternatively recombinant human receptor in HEK-293 cells; 30° C., 30 minutes; read-out: H3 Ave Ki. On the procedure:
The source of the H3 receptors in this experiment was guinea pig brain. Alternatively, the source of H3 receptors was recombinant human receptor, expressed in HEK-293 (human embryonic kidney) cells.
The animals weighed 400-600 g. The brain tissue was homogenized with a solution of 50 mM Tris, pH 7.5. The final concentration of tissue in the homogenization buffer was 10% w/v. The homogenates were centrifuged at 1,000×g for 10 minutes. in order to remove clumps of tissue and debris. The resulting supernatants were then centrifuged at 50,000×g for 20 minutes in order to sediment the membranes, which were next washed three times in homogenization buffer (50,000×g for 20 minutes. each). The membranes were frozen and stored at −70° C. until needed.
Compounds of the invention to be tested were dissolved in DMSO and then diluted into the binding buffer (50 mM Tris, pH 7.5) such that the final concentration was 2 μg/ml with 0.1% DMSO. Membranes were then added (400 μg of protein, 5 μg in the case of recombinant human receptor) to the reaction tubes. The reaction was started by the addition of 3 nM [^3H]R-α-methyl histamine (8.8 Ci/mmol) or 3 nM [^3H]N^α-methyl histamine (80 Ci/mmol) and continued under incubation at 30° C. for 30 minutes. Bound ligand was separated from unbound ligand by filtration, and the amount of radioactive ligand bound to the membranes was quantitated by liquid scintillation spectrometry. All incubations were performed in duplicate and the standard error was always less than 10%. Compounds that inhibited more than 70% of the specific binding of radioactive ligand to the receptor were serially diluted to determine a Ki (nM).
In the case of `C[C@@H]1CCCN1CCc1cn2ccc(-c3ccc(F)nc3)cc2n1` [Compound 19], the pKi was 7.44.

As to `C[C@@H]1CCCN1CCc1cn2cc(-c3ccc(F)cc3)ccc2n1` [Compound 6], the pKi was 7.23.

With `C[C@@H]1CCCN1CCc1cn2cc(-c3ccc(=O)n(C)c3)ccc2n1` [Compound 22], the pKi was 7.16.

For the compound `COc1ccccc1-c1ccc2nc(CCN3CCC[C@H]3C)cn2c1` [Compound 10], the pKi was 6.79.

Take `CC(=O)Nc1ccc(-c2ccc3nc(CCN4CCC[C@H]4C)cn3c2)cc1` [Compound 8]: the pKi is 7.17.

For the compound `C[C@@H]1CCCN1CCc1cn2cc(-c3ccccc3F)ccc2n1` [Compound 11], the pKi was 7.13.

For the compound `C[C@@H]1CCCN1CCc1cn2cc(-c3ccc4[nH]ccc4c3)ccc2n1` [Compound 21], the pKi is 6.34.

For `C[C@@H]1CCCN1CCc1cn2ccc(Br)cc2n1` [Compound 12], the pKi is 7.00.

With `C[C@@H]1CCCN1CCc1cn2cc(-c3cncnc3)ccc2n1` [Compound 24], the negative logarithm of the Ki (pKi) is 6.44.

Regarding `C[C@@H]1CCCN1CCc1cn2cc(-c3cccc4ncccc34)ccc2n1` [Compound 20], the pKi is 6.98.

Turning to `C[C@@H]1CCCN1CCc1cn2cc(-c3ccc(C#N)cc3)ccc2n1` [Compound 2], the pKi is 7.57.

Regarding `C[C@@H]1CCCN1CCc1cn2cc(-c3ccc(F)c(C#N)c3)ccc2n1` [Compound 16], the pKi is 8.40.

In the case of `C[C@@H]1CCCN1CCc1cn2ccc(-c3ccc(C#N)cc3)cc2n1` [Compound 13], the pKi was 7.47.

For the compound `CCOc1cccc(-c2ccn3cc(CCN4CCC[C@H]4C)nc3c2)c1` [Compound 14], the pKi was 7.15.

With `C[C@@H]1CCCN1CCc1cn2cc(-c3ccc(O)cc3)ccc2n1` [Compound 7], the pKi was 7.19.

With `C[C@@H]1CCCN1CCc1cn2cc(-c3cnc(N)cn3)ccc2n1` [Compound 25], the pKi was 6.61.

As for `C[C@@H]1CCCN1CCc1cn2cc(-c3ccc(N(C)C)cc3)ccc2n1` [Compound 4], the negative logarithm of the Ki (pKi) is 6.98.

Consider `C[C@@H]1CCCN1CCc1cn2cc(-c3cncc(C#N)c3)ccc2n1` [Compound 18], for which the negative-log Ki (pKi) is 7.41.

For the compound `C[C@@H]1CCCN1CCc1cn2ccc(-c3ccccc3F)cc2n1` [Compound 15], the pKi was 7.60.

Consider `C[C@@H]1CCCN1CCc1cn2cc(-c3cccc(C#N)c3)ccc2n1` [Compound 9], for which the pKi is 7.89.

With `C[C@@H]1CCCN1CCc1cn2cc(-c3cnc(N)c(C#N)c3)ccc2n1` [Compound 23], the pKi is 7.66.

As for `COc1ccc(-c2ccc3nc(CCN4CCC[C@H]4C)cn3c2)cc1` [Compound 5], the pKi is 7.04.

As to `C[C@@H]1CCCN1CCc1cn2cc(Br)ccc2n1` [Compound 1], the pKi is 6.49.

For the compound `C[C@@H]1CCCN1CCc1cn2cc(-n3ncccc3=O)ccc2n1` [Compound 3], the pKi is 7.11.

`Cc1nnc2ccc(-c3ccc4nc(CCN5CCC[C@H]5C)cn4c3)cn12` [Compound 26]: the pKi is 8.15.

In the case of `C[C@@H]1CCCN1CCc1cn2cc(-c3ccc4ncccc4c3)ccc2n1` [Compound 17], the pKi was 7.95.
